Source: patent publication US20240404621A1, “THERAPEUTIC DEVELOPMENT PLATFORM COMPRISING VARIANT CAPTURE MAPS AND OTHER VISUALIZATIONS” (The Scripps Research Institute, priority 2021, published 2024)

Assays:
[1] = target: T1, F508del CFTR (Homo sapiens, UniProt P13569, DEL508-508); assay: total level and trafficking (TrIdx) of F508del in F508del-CFBE41o− cells; type: cell-based
T1 construct: expressed in transfected cells
Description: (§1) FIG. 2 illustrates an example process of variant spatial profiling (VSP) to generate a phenotype landscape 300 of FIG. 1. VSP uses a sparse collection of variants with known position and phenotypical traits. Each of the variants is positioned on the x-axis by their normalized position in the linear polypeptide sequence, where the full-length chain is assigned a value of 1.0, referred to as the variant sequence position (VarSeqP). The value of a phenotypic feature of each variant's (in this example the trafficking index, TrIdx) to the y-axis. The trafficking index (TrIdx) is the normalized ratio of the fraction of variants exported from the ER relative to the total variant level in the cell, where the value of the WT CFTR TrIdx is assigned a value of 1.0. In this example, the sequence position and TrIdx values are correlated to CFTR chloride conductance (CICon). The normalized CICon is assigned to the z-coordinate, where the value of the WT CFTR CICon is assigned a value of 1.0.
Referring now to FIG. 13, to address whether the correction of CICon in response to temperature is due to energetic features associated with global SCV relationships responsible for membrane trafficking of CFTR from the ER, we built the VarC map for the CFTR trafficking index (TrIdx) of variants following shift from 37° C. to 27° C. TrIdx quantifies the amount of CFTR in post-ER compartments relative to total CFTR in the cell as a measure of efficiency of ER export. The pairwise-residue based TS/TrIdx-VarC map (FIG. 13, upper left panel) and its corresponding TS/TrIdx-functional-response-structure (FIG. 13, upper second from left panel) reveal that only a limited subset of sequence residues contributes to TrIdx correction upon temperature shift. These include: 1) a sequence region containing F508 (FIG. 13, upper left panel, inset zoom); 2) a region in NBD1 domain including variants L558S, A559T, R560K/T and Y569D that are surrounding the CFTR di-acidic code (YKDAD (residues 563-567)) required for COPII dependent ER export (FIG. 13 upper left panel, inset zoom); 3) a sequence region in ICL4 that is reported by CF variants L1065P and L1077P (13) (FIG. 13, upper left panel, inset zoom). Even though separated in primary sequence, these responding regions cluster together in structure (FIG. 13, upper second from left panel). Overlap of MDC maps and corresponding MDC structures between TS/CICon and TS/TrIdx identifies a common energetic sensitive core (FIG. 13, right side, red) responding to temperature shift for both TrIdx and CICon function. This SCV based energetic sensitive core contains the F508-L1065 covariant link that bridges NBD1 (F508) and ICL4 (L1065) (FIG. 13, right panel, inset zoom, red), mechanistically explaining the previous observation that the NBD1-ICL4 interaction is crippled by F508del.
Consistent with previous results, using F508del-CFBE41o− cells, a bronchial epithelial cell line stably expressing the F508Del CFTR transgene, we found ELEXA alone can increase both the total level and the trafficking efficacy of F508del.
To test whether we can add value to the pairwise-residue networks targeted by TRIKA to improve TRIKA benefit for CF by restoring the lost energetics of the fold in response to F508del affecting the function of di-acidic exit code, we measured the impact of ELEXA and TRIKA impact on F508del at 27° C.

[2] = target: T1, F508del CFTR; assay: steady-state CICon at the cell surface of WT and F508del; type: cell-based; conditions: F508del relative to WT
Description: as §1
To assess how TrIdx is coupled to CICon at the cell surface in response to ELEXA or TRIKA, we assessed the steady-state CICon at the cell surface of WT and F508del. […] To understand the impact of ELEXA and TRIKA on the SCV relationships spanning the entire CFTR polypeptide, we measured the CICon responses for 64 CF variants. […]

[3] = F508del at 27° C. compared to 37° C.
[4] = F508del-CFBE41o− cells, compound alone

T1 sequence (P13569 with tags, fused parts or gaps DEL508-508): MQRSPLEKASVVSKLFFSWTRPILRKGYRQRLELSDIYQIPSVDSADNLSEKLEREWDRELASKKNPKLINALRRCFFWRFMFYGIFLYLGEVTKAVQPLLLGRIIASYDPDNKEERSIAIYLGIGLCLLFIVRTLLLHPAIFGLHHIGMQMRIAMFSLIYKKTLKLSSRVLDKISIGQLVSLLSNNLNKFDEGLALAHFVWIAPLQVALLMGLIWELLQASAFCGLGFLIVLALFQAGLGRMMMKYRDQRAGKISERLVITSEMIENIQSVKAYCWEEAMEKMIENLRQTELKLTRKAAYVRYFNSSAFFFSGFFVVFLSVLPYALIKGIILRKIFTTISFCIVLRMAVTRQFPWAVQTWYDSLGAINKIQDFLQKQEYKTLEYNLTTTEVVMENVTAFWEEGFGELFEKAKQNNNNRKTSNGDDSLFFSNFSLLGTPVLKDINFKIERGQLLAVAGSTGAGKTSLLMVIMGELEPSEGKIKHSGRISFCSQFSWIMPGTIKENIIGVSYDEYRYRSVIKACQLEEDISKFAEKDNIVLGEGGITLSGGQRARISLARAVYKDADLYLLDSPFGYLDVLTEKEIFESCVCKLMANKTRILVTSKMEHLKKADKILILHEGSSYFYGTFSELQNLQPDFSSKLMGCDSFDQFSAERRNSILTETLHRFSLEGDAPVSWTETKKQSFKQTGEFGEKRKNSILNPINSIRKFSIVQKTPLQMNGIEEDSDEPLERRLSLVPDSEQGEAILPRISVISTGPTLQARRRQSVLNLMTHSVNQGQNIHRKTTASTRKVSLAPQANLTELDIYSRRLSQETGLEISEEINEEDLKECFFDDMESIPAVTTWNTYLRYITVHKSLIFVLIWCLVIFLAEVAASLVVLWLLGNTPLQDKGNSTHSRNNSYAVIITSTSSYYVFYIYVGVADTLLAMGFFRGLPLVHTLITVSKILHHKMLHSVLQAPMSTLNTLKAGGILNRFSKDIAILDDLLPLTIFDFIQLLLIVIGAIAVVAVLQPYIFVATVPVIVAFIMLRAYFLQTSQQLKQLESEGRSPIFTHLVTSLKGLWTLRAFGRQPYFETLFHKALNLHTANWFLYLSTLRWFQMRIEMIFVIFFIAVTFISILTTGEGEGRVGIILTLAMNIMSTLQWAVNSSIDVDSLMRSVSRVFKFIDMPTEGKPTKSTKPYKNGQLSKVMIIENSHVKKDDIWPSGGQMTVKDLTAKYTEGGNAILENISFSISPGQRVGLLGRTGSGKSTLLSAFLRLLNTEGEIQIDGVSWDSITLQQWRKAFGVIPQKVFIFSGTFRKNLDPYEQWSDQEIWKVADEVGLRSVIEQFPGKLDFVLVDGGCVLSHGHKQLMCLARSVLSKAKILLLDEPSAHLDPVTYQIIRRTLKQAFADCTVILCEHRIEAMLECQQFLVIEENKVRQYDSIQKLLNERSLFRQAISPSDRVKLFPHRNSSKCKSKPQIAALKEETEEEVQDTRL

Row | impact on TrIdx ([1]; F508del-CFBE41o− cells, IVA added to ELEXA) | CICon function for F508del [2] | level of post-ER band C [1, 3] | total CFTR [1, 3] | trafficking efficiency (band C relative to total) [1, 3] | total level of F508del [1, 4] | trafficking efficacy of F508del [1, 4] | SMILES
1 | no additional impact | – | – | – | – | – | – | CC(C)(C)c1cc(C(C)(C)C)c(NC(=O)c2c[nH]c3ccccc3c2=O)cc1O [IVA, Ivacaftor]
2 | – | ~20 % of WT | dramatic improvement | dramatic improvement | dramatic improvement | can increase | can increase | Cc1nn(C)cc1S(=O)(=O)NC(=O)c1ccc(-n2ccc(OCC(C)(C)C(F)(F)F)n2)nc1N1C[C@@H](C)CC1(C)C [ELEXA, Elexacaftor]
